Key:
[1] = target: T1, androgen receptor (Homo sapiens, UniProt P10275); assay: Assay for binding affinity to androgen receptor ([3H]methyltrienolone radioligand competition, cell cytosol); details: binding to the androgen receptor, 1 nM [3H]methyltrienolone, 24 hr at 4° C.
T1 construct: host or cells: unnamed cells, cytosolic fraction
T1 sequence (P10275 1-920): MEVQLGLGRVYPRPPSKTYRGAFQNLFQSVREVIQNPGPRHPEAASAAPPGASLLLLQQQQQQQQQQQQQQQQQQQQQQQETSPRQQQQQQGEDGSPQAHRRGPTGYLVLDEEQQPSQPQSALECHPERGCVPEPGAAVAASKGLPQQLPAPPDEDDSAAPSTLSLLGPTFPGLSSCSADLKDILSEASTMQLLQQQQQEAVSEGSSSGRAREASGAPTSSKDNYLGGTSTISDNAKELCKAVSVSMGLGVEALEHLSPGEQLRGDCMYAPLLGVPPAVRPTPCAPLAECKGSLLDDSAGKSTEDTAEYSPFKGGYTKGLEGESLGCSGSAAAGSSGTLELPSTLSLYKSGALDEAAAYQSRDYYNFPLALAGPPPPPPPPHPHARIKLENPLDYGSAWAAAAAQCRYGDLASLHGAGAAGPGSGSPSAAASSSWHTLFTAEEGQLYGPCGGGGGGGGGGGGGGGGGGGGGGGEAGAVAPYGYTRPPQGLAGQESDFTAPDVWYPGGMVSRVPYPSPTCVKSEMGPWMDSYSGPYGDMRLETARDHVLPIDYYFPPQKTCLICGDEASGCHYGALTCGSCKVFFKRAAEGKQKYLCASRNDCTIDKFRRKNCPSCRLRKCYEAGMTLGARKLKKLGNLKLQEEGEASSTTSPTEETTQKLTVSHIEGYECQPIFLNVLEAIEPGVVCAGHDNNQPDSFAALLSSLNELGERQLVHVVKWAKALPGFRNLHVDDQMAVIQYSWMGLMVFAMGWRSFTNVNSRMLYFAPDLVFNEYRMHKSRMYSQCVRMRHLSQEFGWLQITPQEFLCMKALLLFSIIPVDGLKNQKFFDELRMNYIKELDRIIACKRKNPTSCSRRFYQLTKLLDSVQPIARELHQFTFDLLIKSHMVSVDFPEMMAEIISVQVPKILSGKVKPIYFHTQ
Description: Fractions of cell cytosol ([…]) were incubated for 24 hr at 4° C. with 1 nM [^3H]methyltrienolone in the absence or presence of the test compound in a buffer containing 25 mM Hepes-Tris (pH 7.4), 1 mM EDTA, 10 mM Na2MoO4, 2 mM DTT, 5 μM triamcinolone acetonide, and 10% glycerol. Nonspecific binding was determined in the presence of […] testosterone. Following incubation, the samples were filtered rapidly under vacuum through glass fiber filters (GF/B, Packard) presoaked with 0.3% PEI and rinsed several times with ice-cold 50 mM Tris-HCl using a 96-sample cell harvester (Unifilter, Packard). The filters were dried then counted for radioactivity in a scintillation counter (Topcount, Packard) using a scintillation cocktail (Microscint 0, Packard). The results are expressed as a percent inhibition of the control radioligand specific binding. The standard reference compound is testosterone, which is tested in each experiment at several concentrations to obtain a competition curve from which its IC50 is calculated.

[2] = tested on: T-Rex 293 cell line SC cells having increased expression of progesterone receptor isoform B protein; assay: Cellular growth inhibition assay, T-Rex 293 SC cells exposed to doxycycline (increased progesterone receptor isoform B expression), CellTiter-Glo; assay type: cell-based; details: T-Rex 293 SC cells with 10 ng/mL doxycycline (increased PR isoform B), 72 hours
[3] = target: T2, progesterone receptor ligand binding domain (GST-tagged PR LBD) (Homo sapiens, UniProt P06401); assay: FP Assay for Binding Affinity to Progesterone Receptor (PolarScreen Progesterone Receptor Competitor Assay Kit); details: fluorescence polarization, Fluormone tracer, 2 hours at room temperature
T2 construct: purchased Life Technologies A15905 or a15906
T2 sequence (P06401 679-913 limits assumed): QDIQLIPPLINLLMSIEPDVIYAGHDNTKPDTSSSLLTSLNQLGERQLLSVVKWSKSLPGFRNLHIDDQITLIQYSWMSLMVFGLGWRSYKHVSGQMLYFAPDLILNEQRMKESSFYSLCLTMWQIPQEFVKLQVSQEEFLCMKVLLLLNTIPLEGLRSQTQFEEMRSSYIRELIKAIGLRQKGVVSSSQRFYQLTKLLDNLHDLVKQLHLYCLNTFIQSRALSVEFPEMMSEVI
Method in brief: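 Fluorescence polarization competition: GST-tagged human PR LBD, Fluormone tracer and compound incubated 2 h at room temperature in the dark. mP plotted against compound concentration; IC50 from four-parameter non-linear fit.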

SMILES	Ki [1]	IC50 [3]	GI50 [2]
Cn1cc(-c2cc(C(C)(C)O)ccc2Oc2ccc(N3CC(CC4CCN(c5ncc(C(=O)N[C@H]6C(C)(C)[C@H](Oc7ccc(C#N)c(Cl)c7)C6(C)C)cn5)CC4)C3)cc2)c2cc[nH]c2c1=O [Compound I-232]	< 50 nM	500 to 2500 nM	< 500 nM
Cn1cc(-c2cc(C(C)(C)O)ccc2Oc2ccc(CCC3CCN(c4ncc(C(=O)N[C@H]5C(C)(C)[C@H](Oc6ccc(C#N)c(Cl)c6)C5(C)C)cn4)CC3)cc2)c2cc[nH]c2c1=O [Compound I-203]	50 to 500 nM	> 2500 nM	< 500 nM
CCS(=O)(=O)c1ccc(OC(CCCCN2CCN(c3ncc(C(=O)NC4C(C)(C)C(Oc5ccc(C#N)c(Cl)c5)C4(C)C)cn3)CC2)C2CC2)c(-c2cn(C)c(=O)c3[nH]ccc23)c1 (stereo not shown) [Compound I-223, N-[3-(3-chloro-4-cyano-phenoxy)-2,2,4,4-tetramethyl-cyclobutyl]-2-[4-[5-cyclopropyl-5-[4-ethylsulfonyl-2-(6-methyl-7-oxo-1H-pyrrolo[2,3-c]pyridin-4-yl)phenoxy]pentyl]piperazin-1-yl]pyrimidine-5-carboxamide]	< 50 nM	50 to 500 nM	
CCS(=O)(=O)Nc1ccc(Oc2ccc(OCC3CCN(c4ncc(C(=O)N[C@H]5C(C)(C)[C@H](Oc6ccc(C#N)c(Cl)c6)C5(C)C)cn4)CC3)cc2)c(-c2cn(C)c(=O)c3[nH]ccc23)c1 [Compound I-138]	< 50 nM	> 2500 nM	< 500 nM
Cn1cc(-c2cc(C(C)(C)O)ccc2Oc2ccc(N3CC4(C3)CN(c3ncc(C(=O)N[C@H]5C(C)(C)[C@H](Oc6ccc(C#N)c(Cl)c6)C5(C)C)cn3)CCO4)cc2)c2cc[nH]c2c1=O [Compound I-212]	< 50 nM	50 to 500 nM	
CCS(=O)(=O)c1ccc(Oc2cccc(OCCN3CCN(c4ncc5c(n4)CN([C@H]4C(C)(C)[C@H](Oc6ccc(C#N)c(Cl)c6)C4(C)C)C5=O)CC3)c2F)c(-c2cn(C)c(=O)c3[nH]ccc23)c1 [Compound I-217]	< 50 nM	< 50 nM	

More lines, main results first:

Ki [1]	IC50 [3]	SMILES	GI50 [2]
< 50 nM	50 to 500 nM	Cn1cc(-c2cc(C(C)(C)O)ccc2Oc2cccc(N3CC4(CN(c5ncc(C(=O)N[C@H]6C(C)(C)[C@H](Oc7ccc(C#N)c(Cl)c7)C6(C)C)cn5)CCO4)C3)c2F)c2cc[nH]c2c1=O [Compound I-216]	
< 50 nM	50 to 500 nM	Cn1cc(-c2cc(C(C)(C)O)ccc2Oc2cccc(OCCN3CCN(c4ncc(C(=O)N[C@H]5C(C)(C)[C@H](Oc6ccc(C#N)c(Cl)c6)C5(C)C)cn4)CC3)c2F)c2cc[nH]c2c1=O [Compound I-99]	

Source: US20250388605A1, “HETEROBIFUNCTIONAL COMPOUNDS AND METHODS OF TREATING DISEASE” (Halda Therapeutics OpCo, Inc., priority 2022, published 2025)
